Here are results for one substance from patent publication US20140341837A1, “Ferrate and Povidone Iodine (PI) Composition” (Biolife, L.L.C., priority 2010, published 2014).

The nature of data set [1]: standard hemostasis strength device. The note with it: povidone iodine at 10%. Here is the method:
A mixture of various iron sources, chelation compounds, and active antimicrobials was tested using the recovered biofilm from WU according to the matrix in Table III.
Each mixture was tested in a standard hemostasis strength device described in detail in FDA 510k filing, K080210, incorporated herein in its entirety, and in the standardized 96 unit biofilm eradication test device also described in the 510k filing. The results were indexed* to #12, the ferrate/resin/10% PI powder.

Data set [2] in a line: stability of PI in the dry powder. It is filed as physicochemical. The note with it: very dry environment of the powder. An excerpt: The PI is stable in this very dry environment.
For data set [3] the following is noted: cited from earlier work.
The conditions of data set [4]: on dilution; cited from earlier work.

On to PVP-Iodine [PI], for which the “effect of PI addition on hemostatic efficiency” value in data set [1] was “does not affect the hemostatic efficiency”. In data set [2], the “stability of PI” value is reported as “stable”. Also, the “efficacy at concentrations of 5-10% PI” value in data set [3] (5-10% PI) was “ineffective”. Further, the “I2 concentration of non-effective kill” value in data set [3] (pamphlet FIG. 2) was < 0.001%. The “solution strength at maximum content of uncomplexed iodine” value in data set [4] is on record as 0.1%.
